Structures can show the parent of a compound that is named as a salt.
| Structure (SMILES) | melting point |
| --- | --- |
| CCCN(CCCc1c[nH]c2ccc(F)cc12)C1CCc2c(F)ccc(OC)c2C1 (stereo not drawn) (as salt: hydrochloride) [Compound 51, N-[3-(5-fluoro-1H-indol-3-yl)propyl]-N-(5-fluoro-8-methoxy-1,2,3,4-tetrahydronaphthalen-2-yl)-N-propylamine] | 107 °C (dec.) |
| NC(=O)c1ccc(F)c2c1CC(N(CCCc1c[nH]c3cc(F)ccc13)CC1CC1)CO2 (stereo not drawn) (as salt: hydrochloride) [Compound 52a, 3-{(cyclopropylmethyl)[3-(6-fluoro-1H-indol-3-yl)propyl]amino}-8-fluorochromane-5-carboxamide] | 123 °C (dec.) |
| NC(=O)c1ccc(F)c2c1CC(N(CCCc1c[nH]c3cc(F)ccc13)C1CCC1)CO2 (stereo not drawn) (as salt: hydrochloride) [Compound 53, 3-{cyclobutyl[3-(6-fluoro-1H-indol-3-yl)propyl]amino}-8-fluorochromane-5-carboxamide] | 126 °C (dec.) |
| O=C(O)c1ccc(F)c2c1CC(N(CCCc1c[nH]c3ccc(F)cc13)C1CCC1)CO2 (stereo not drawn) (as salt: hydrochloride) [Compound 56, 3-{cyclobutyl[3-(5-fluoro-1H-indol-3-yl)propyl]amino}-8-fluorochromane-5-carboxylic acid] | 140 °C (dec.) |
| COC(=O)c1ccc(F)c2c1CC(N(CCCCc1c[nH]c3ccc(F)cc13)C1CCC1)CO2 (stereo not drawn) (as salt: hydrochloride) [Compound 58, Methyl 3-{cyclobutyl[4-(5-fluoro-1H-indol-3-yl)butyl]amino}-8-fluorochromane-5-carboxylate] | 115 °C (dec.) |
| CNC(=O)c1ccc(F)c2c1CC(N(CCCc1c[nH]c3ccc(F)cc13)C1CCC1)CO2 (stereo not drawn) (as salt: hydrochloride) [Compound 59, 3-{cyclobutyl[3-(5-fluoro-1H-indol-3-yl)propyl]amino}-8-fluoro-N-methylchromane-5-carboxamide] | 132 °C (dec.) |
| CCNC(=O)c1ccc(F)c2c1CC(N(CCCc1c[nH]c3ccc(F)cc13)C1CCC1)CO2 (stereo not drawn) (as salt: hydrochloride) [Compound 60, 3-{cyclobutyl[3-(5-fluoro-1H-indol-3-yl)propyl]amino}-N-ethyl-8-fluorochromane-5-carboxamide] | 130 °C (dec.) |

The remaining lines, values ahead:

| melting point | Structure (SMILES) |
| --- | --- |
| 228 °C (dec.) | COC(=O)c1ccc(F)c2c1CC(NCCCCc1c[nH]c3ccc(F)cc13)CO2 (stereo not drawn) (as salt: hydrochloride) [Compound 57, Methyl 8-fluoro-3-{[4-(5-fluoro-1H-indol-3-yl)butyl]amino}chromane-5-carboxylate] |
| 240 °C (dec.) | COC(=O)c1ccc(F)c2c1C[C@H](NCCCCc1c[nH]c3ccc(F)cc13)CO2 (as salt: hydrochloride) [Compound 57a, Methyl (3S)-8-fluoro-3-{[4-(5-fluoro-1H-indol-3-yl)butyl]amino}chromane-5-carboxylate] |
| 240 °C (dec.) | COC(=O)c1ccc(F)c2c1C[C@@H](NCCCCc1c[nH]c3ccc(F)cc13)CO2 (as salt: hydrochloride) [Compound 57b, methyl (3R)-8-fluoro-3-{[4-(5-fluoro-1H-indol-3-yl)butyl]amino}chromane-5-carboxylate] |
| 209 °C (dec.) | COC(=O)c1ccc(F)c2c1C[C@H](N(CCCCc1c[nH]c3ccc(F)cc13)C1CCC1)CO2 (as salt: hydrochloride) [Compound 58a, Methyl (3S)-3-{cyclobutyl[4-(5-fluoro-1H-indol-3-yl)butyl]amino}-8-fluorochromane-5-carboxylate] |
| 209 °C (dec.) | COC(=O)c1ccc(F)c2c1C[C@@H](N(CCCCc1c[nH]c3ccc(F)cc13)C1CCC1)CO2 (as salt: hydrochloride) [Compound 58b, Methyl (3R)-3-{cyclobutyl[4-(5-fluoro-1H-indol-3-yl)butyl]amino}-8-fluorochromane-5-carboxylate] |

Reference: patent publication US20050032873A1, “3-Amino chroman and 2-amino tetralin derivatives” (Wyeth, priority 2003, published 2005)
